From patent US20040077878A1, “Process for the preparation of tri-nitrogen containing heteroaryl-diamine derivatives useful as pharmaceutical agents and methods of producing pharmaceutical agents” (priority 2002, published 2004)

Molecular target: IMPDH II enzyme (Homo sapiens, UniProt P12268)
Assay: assay against the IMPDH II enzyme
Assay type: biochemical
Description: The present invention enables an efficient and effective production of 1,2,4-triazole-3,5-diamine and/or 1,3,5-triazine-2,4-diamine derivatives, which are useful as pharmaceutical agents and/or as components of pharmaceutical agents, particularly inhibitors of IMPDH, anti-hypertensive agents, and neurokinin receptor antagonists, from readily-available starting compounds. This process provides a convenient synthesis of the target compound from a substituted isothiocyanate, hydrogencyanamide salt, a substituted hydrazine and/or a substituted amidine in moderate to good yield. […] Additionally, tri-nitrogen containing heteroaryl-diamine derivatives of formula (I), 1,2,4-triazole-3,5-diamines of formula (A) and/or (B) and 1,3,5-triazine-2,4-diamines of formula (C) may be readily coupled to a pharmacological core component to provide pharmaceutically active agents, such as, for examples, the compounds described in WO 00/25780, Dunstan et al., Tetrahedron Lett., Vol. 39, (1998), at pp. 7983-7986, U.S. Pat. No. 6,436,928, U.S. patent application No. 20020038030, U.S. Pat. No. 6,172,077 B1, U.S. Pat. No. 5,232,938, U.S. Pat. No. 4,569,933, WO 01/74806A1, WO 01/56987 A1, and EP 1107962 A1, incorporated herein by reference.

IC50: 0.15 µM
Compound: COc1cc(Nc2nc(N)n(-c3ccccc3)n2)ccc1-c1cnco1 [Example 13]
